How the values were obtained:
[1] = target: T1, 5-hydroxytryptamine receptor 1A (Rattus norvegicus, UniProt P19327); assay: In vitro ability to displace the radioligand [3H]-OH-DPAT from binding to rat 5-hydroxytryptamine 1A receptor
T1 sequence (P19327 whole entry): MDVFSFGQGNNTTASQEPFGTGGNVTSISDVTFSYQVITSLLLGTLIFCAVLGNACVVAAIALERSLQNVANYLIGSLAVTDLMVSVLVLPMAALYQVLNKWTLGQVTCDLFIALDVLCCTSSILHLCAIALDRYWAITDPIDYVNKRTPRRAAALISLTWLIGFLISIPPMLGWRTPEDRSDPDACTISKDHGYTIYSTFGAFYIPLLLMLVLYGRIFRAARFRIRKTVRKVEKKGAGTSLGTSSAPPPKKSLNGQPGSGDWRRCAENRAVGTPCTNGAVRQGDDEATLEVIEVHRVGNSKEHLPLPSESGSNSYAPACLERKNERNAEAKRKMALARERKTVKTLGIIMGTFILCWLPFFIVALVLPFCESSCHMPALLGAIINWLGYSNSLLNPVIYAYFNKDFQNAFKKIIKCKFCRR

[2] = target: 5-hydroxytryptamine receptor 7 (Rattus norvegicus, UniProt P32305); assay: In vitro ability to displace the radioligand [3H]5-CT from binding to rat 5-hydroxytryptamine 7 receptor
Chain of 5-hydroxytryptamine receptor 7 (P32305 whole entry): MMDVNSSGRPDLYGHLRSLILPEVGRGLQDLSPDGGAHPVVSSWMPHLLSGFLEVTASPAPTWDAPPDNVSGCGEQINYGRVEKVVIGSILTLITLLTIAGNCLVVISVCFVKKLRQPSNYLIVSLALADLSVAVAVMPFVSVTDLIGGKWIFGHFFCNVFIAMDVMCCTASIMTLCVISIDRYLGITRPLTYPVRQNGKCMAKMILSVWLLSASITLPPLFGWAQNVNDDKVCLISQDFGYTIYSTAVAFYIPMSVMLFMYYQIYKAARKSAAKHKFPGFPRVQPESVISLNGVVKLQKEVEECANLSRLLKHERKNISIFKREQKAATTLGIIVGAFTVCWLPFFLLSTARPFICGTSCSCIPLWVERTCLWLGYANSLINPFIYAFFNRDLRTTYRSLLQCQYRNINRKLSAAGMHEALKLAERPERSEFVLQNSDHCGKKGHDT

| Structure (SMILES) | Ki [1] | Ki [2] |
| --- | --- | --- |
| COc1ccccc1N1CCN(Cc2ccccc2CN2C(=O)CCC2=O)CC1 | 415 nM | 910 nM |
| COc1ccccc1N1CCN(Cc2ccccc2CN2C(=O)c3ccccc3C2=O)CC1 | 405 nM | 367 nM |
| COc1ccccc1N1CCN(C/C=C\CN2C(=O)CCC2=O)CC1 | 157 nM | 790 nM |
| COc1ccccc1N1CCN(C/C=C\CN2C(=O)c3ccccc3C2=O)CC1 | 77 nM | 353 nM |

The next molecules have a lower Ki [1] than those just listed; values first:

| Ki [1] | Ki [2] | Structure (SMILES) |
| --- | --- | --- |
| 5 nM | 36 nM | COc1ccccc1N1CCN(C/C=C/CN2C(=O)c3ccccc3C2=O)CC1 |
| 15.2 nM | 11500 nM | COc1ccccc1N1CCN([C@H]2CC[C@H](N3C(=O)CCC3=O)CC2)CC1 |
| 29 nM | 63 nM | COc1ccccc1N1CCN(C/C=C/CN2C(=O)CCC2=O)CC1 |
| 8 nM | 2040 nM | COc1ccccc1N1CCN([C@H]2CC[C@H](N3C(=O)c4ccccc4C3=O)CC2)CC1 |
